Experimental data: US20230414571A1, “APPLICATION OF SMALL-MOLECULE COMPOUND IN PREPARATION OF ANTITUMOR DRUG” (SOOCHOW UNIVERSITY, priority 2021, published 2023)
“Also recorded” adds a separate entry of the source.

Assays:
[1] = biological target: T1, hexokinase 2 (HK2) (Homo sapiens, UniProt P52789); experiment: HK2 activity test on GLMSD platform (graphite dots MALDI-MS); format: biochemical; details: for inhibitory effect on the HK2: inhibition curves FIGS. 3-7, colorimetric kit and GLMSD; for inhibition at 20 µM: read-out: inhibition rate of HK2 activity
T1 sequence (P52789 1-917): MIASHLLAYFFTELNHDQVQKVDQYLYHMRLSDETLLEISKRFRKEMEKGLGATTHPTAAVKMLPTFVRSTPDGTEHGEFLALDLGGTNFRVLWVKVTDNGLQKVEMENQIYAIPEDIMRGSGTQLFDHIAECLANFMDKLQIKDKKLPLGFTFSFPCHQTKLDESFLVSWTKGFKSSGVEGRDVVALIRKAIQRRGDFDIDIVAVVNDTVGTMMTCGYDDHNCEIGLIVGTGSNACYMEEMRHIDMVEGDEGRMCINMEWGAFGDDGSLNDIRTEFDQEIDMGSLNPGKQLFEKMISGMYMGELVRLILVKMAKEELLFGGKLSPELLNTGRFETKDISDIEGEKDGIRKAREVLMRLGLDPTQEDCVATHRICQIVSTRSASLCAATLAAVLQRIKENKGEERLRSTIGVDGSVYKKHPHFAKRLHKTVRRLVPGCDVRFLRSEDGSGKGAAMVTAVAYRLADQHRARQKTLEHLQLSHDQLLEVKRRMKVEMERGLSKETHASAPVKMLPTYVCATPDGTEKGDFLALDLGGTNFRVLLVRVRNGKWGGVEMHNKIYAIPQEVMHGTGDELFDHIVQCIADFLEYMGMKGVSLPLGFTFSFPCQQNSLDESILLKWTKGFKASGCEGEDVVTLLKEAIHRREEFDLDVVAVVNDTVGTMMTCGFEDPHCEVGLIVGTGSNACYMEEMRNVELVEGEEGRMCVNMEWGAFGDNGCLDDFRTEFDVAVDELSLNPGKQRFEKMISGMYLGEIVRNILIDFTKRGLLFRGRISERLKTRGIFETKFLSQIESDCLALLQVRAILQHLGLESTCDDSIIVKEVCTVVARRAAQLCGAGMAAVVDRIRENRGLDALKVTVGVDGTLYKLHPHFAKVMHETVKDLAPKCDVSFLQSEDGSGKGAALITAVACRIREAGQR
Procedure: GDs were dispersed in water at a concentration of 1 mg/mL as a matrix solution to be used. A sample was prepared by using a quick-drying method: firstly, 1 μL of matrix solution was dropped onto a target plate, and after natural drying at a room temperature in a […], 1 μL of sample to be analyzed was dropped onto a surface of the dried matrix, and after the sample was naturally dried, mass spectrometry was directly performed:
An instrument in the MALDI-MS was a Bruker Ultraflex III TOF/TOF mass spectrometer, which was mainly in a reflection positive and negative ion mode. Nd of 355 nm for instrument parameter: YAG laser had laser energy of 30% corresponding to 57 μJ per pulse (laser pulse duration: 3 ns), a laser spot size was about 50-100 μm, each sample was repeatedly tested four times, and 3000 laser spots were accumulated in each mass spectrum. All samples were measured under the same instrumental conditions.
an inhibition rate=(1−B/A)×100%, where • A was: a glucose concentration in a pre-reaction solution without the inhibitor-a glucose concentration in a post-reaction solution without the inhibitor, • B was: a glucose concentration in a pre-reaction solution with the inhibitor-a glucose concentration in a post-reaction solution with the inhibitor, and • a glucose concentration in the reaction solution=(mass spectrum signal strength of [glucose+Na]+/mass spectrum signal strength of [glucose-1-^13C+Na]+)×known concentration of glucose-1-^13C.

[2] = test system: cranial nerve glioma cell U87; experiment: Antiproliferative activity against cranial nerve glioma cell U87; format: cell-based; details: U87 cells, FIG. 14
From the text: FIG. 14 is an antiproliferative activity test diagram of compound 8, compound 11, compound 13, and compound 21 against a cranial nerve glioma cell U87.

[3] = Plasma pharmacokinetics in mice determined by GLMSD; format: in vivo, mouse; details: ip, TMZ injected into abdominal cavity of mouse, plasma, average of 8 mice
Procedure: It can be seen from FIG. 8-1 that the GLMSD platform can specifically acquire the pharmacokinetic data of small-molecule compound 27. Competitive advantages of GLMSD in pharmacokinetic research: (1) a complete drug blood concentration curve of each individual may be tracked; and (2) the total number of mice used in the test is reduced. Since the blood sample consumption of the GLMSD method is low (10 μL of blood per time point), one mouse can be used for completing the entire pharmacokinetic curve (blood sampling at 11 time points within 24 hours, and the minimum interval being 0.25 hour) of a drug.
Based on the advantage that the complete PK curve can be tested by means of the GLMSD, we observe that 3 (#2, #3 and #4) in 8 mice have the characteristic re-absorption peak of this small-molecule inhibitor at the time point of 8 h, and such a characteristic re-absorption peak hardly exists in other 5 mice. This significant phenomenon is related to drug uptake differences between individuals, prompting that compound 27 may re-enter blood circulation by means of a secondary absorption pathway. In the mode of continuous multiple administration (c in FIG. 8-2), pharmacokinetic data of compound 27 (40 mg/kg) was collected from each mouse every day (1, 3, 6, and 8 hours after last administration) for 5 days. For a single dose (a in FIG. 8-2) or a continuous multi-dose (d in FIG. 8-2) administration manner, a limitation of a conventional LC-MS technology lies in obtaining a single data point of pharmacokinetics of a drug by sacrificing one mouse, whereas GLMSD can break through this limitation by providing a complete pharmacokinetic curve based on a single mouse.

[4] = test system: U87MG tumor; experiment: U87MG tumor growth and survival in mice after various treatments; format: in vivo, nude mouse; details: for median survival time: mice with U87MG tumor, n=6 per group
From the text: In all different experimental groups (a and b in FIG. 10), the overall survival (OS) of mice treated with TMZ and compound 27 is the best. […] However, mouse death caused by glioma is reduced only 20 days […] treatment. After this period of time, the survival rates of the in-situ U87 heterogeneous tumor of the two single drug groups decreases rapidly due to malignant glioma.

[5] = small-molecule concentration of the inhibitor 20 μM, GLMSD

Row | Compound | inhibitory effect on the HK2 [1] | inhibition at 20 µM [1, 5] [%] | inhibitory effect on U87 [2] | median survival time [4] [days] | further results
1 | Cc1c(CCC(=O)NC2CS(=O)(=O)CC2O)c(=O)oc2cc(O)ccc12 (stereo not shown) [compound 11] | good inhibition effect; also recorded: good inhibitory effects | 29 | inhibitory effects on U87 |  | 
2 | COc1ccc(CN2CCNCC2)c(OC)c1OC [TMZ, Trimetazidine, reference compound] |  |  |  | 35 | AUC(0-t) ([3]; read-out: AUC0-24 h): 247 µg·h/mL; Cmax ([3]; read-out: Cmax): 33700 ng/mL; half-life ([3]; read-out: T1/2 (converted)): 1.72 h; Tmax ([3]; read-out: Tmax): 0.5 h; glioma growth / survival rate, bioluminescence tracking ([4]; in situ U87-luciferase mice, compared with PBS): delays the growth of glioma
3 | O=C(O)C(=O)CBr [3-BP, 3-bromopyruvic acid, reference compound] |  |  |  | 17 | 
4 | COc1cccc(CNCCCn2ccnc2)c1OCc1ccc(F)cc1 [compound 8] | good inhibitory effects |  | inhibitory effects on U87 |  | inhibition rate of HK2 activity [1, 5]: 44%
5 | COc1ccccc1OCC(=O)NNC(=O)CCCC(=O)NNC(=O)COc1ccccc1OC [compound 21] | good inhibitory effects | 25 | inhibitory effects on U87 |  | 
